In US7759331B2, “Pyridine-containing macroheterococylic compounds as kinase inhibitors” (Janssen Pharmaceutica NV, priority 2006, dated 2010):

What was measured:
Test in all cases: Protein kinase selectivity panel
Type in all cases: biochemical
Details in all cases: 1.0 μM compound, 10 μM ATP
[1] = molecular target: PKBγ(h) (Homo sapiens, UniProt Q9Y243)
Method in brief: (§1)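 Single-point screen: compound 1.0 μM; ATP 10 μM; peptide/protein substrate matched to each kinase; reaction linear in time.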

[2] = molecular target: T1, PDK1(h) (Homo sapiens, UniProt O15530)
T1 sequence (O15530 1-556): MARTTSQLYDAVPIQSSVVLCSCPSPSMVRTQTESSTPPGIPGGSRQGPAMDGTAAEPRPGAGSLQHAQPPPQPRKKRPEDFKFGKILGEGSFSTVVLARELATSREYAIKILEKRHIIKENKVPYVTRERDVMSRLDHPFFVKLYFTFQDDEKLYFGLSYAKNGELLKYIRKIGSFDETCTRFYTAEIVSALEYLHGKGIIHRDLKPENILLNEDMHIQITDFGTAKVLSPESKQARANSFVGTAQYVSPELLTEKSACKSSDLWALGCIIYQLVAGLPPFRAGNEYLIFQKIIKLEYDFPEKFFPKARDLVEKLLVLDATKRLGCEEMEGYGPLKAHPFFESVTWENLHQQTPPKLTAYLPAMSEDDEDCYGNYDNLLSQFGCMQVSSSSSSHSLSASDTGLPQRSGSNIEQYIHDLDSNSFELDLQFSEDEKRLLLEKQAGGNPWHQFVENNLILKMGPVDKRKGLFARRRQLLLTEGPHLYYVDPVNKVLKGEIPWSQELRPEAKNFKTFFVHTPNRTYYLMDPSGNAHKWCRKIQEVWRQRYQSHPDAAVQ
Method in brief: as §1

[3] = molecular target: T2, ZAP-70(h) (Homo sapiens, UniProt P43403)
T2 construct: purchased Upstate Cell Signaling Solutions (KinaseProfiler Selectivity Screening Service)
T2 sequence (P43403 1-619): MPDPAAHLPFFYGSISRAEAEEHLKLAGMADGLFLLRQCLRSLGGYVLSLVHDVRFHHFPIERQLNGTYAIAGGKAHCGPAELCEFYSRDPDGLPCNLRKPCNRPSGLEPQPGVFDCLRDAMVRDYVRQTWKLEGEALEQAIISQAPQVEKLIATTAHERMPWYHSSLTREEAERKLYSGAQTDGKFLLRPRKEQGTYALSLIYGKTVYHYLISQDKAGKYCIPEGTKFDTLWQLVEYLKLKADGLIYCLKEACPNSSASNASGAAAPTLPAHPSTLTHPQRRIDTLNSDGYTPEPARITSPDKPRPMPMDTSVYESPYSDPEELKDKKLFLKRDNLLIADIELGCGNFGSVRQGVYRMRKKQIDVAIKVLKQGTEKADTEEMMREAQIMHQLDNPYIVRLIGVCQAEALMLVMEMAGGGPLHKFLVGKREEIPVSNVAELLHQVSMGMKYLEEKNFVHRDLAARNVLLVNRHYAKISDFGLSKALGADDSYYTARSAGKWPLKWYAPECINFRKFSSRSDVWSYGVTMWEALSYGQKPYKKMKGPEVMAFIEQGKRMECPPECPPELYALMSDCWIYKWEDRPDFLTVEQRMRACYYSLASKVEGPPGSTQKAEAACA
Method in brief: as §1

[4] = molecular target: Fyn(h) (Homo sapiens, UniProt P06241)
Method in brief: as §1

[5] = molecular target: Lck(h) (Homo sapiens, UniProt P06239)
Method in brief: as §1

[6] = molecular target: T3, MKK7β(h) (Homo sapiens, UniProt O14733)
T3 sequence (O14733 1-419): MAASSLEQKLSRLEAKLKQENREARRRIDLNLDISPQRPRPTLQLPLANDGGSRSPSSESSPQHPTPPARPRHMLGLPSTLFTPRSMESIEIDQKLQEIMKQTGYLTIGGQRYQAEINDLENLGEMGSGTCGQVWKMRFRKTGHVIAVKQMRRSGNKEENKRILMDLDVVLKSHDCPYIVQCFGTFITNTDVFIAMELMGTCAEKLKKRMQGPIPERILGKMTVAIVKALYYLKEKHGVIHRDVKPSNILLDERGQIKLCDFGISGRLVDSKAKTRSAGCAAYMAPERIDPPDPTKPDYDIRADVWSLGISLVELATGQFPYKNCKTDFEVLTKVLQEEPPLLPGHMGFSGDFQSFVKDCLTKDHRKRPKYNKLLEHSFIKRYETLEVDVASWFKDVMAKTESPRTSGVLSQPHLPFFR
Method in brief: as §1

[7] = molecular target: T4, PKCζ(h) (Homo sapiens, UniProt Q05513)
T4 sequence (Q05513 1-592): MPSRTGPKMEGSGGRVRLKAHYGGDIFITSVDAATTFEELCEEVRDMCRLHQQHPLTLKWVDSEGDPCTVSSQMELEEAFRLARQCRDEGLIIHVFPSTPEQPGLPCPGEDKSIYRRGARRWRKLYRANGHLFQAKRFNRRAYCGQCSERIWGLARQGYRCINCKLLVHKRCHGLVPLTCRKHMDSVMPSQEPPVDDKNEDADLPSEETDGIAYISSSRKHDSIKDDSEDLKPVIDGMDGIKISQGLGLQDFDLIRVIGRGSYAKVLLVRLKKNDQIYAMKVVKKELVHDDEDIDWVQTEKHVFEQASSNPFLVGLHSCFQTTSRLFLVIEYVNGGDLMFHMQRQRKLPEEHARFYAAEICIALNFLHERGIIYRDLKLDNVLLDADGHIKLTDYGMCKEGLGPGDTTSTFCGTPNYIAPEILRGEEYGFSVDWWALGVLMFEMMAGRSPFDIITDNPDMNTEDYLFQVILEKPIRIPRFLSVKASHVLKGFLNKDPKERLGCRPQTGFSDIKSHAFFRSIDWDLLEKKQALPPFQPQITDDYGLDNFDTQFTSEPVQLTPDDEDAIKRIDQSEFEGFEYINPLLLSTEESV
Method in brief: as §1

[8] = molecular target: CDK1/cyclinB(h) (Homo sapiens, UniProt P06493)
Method in brief: as §1

Sequence of PKBγ(h) (Q9Y243 whole entry): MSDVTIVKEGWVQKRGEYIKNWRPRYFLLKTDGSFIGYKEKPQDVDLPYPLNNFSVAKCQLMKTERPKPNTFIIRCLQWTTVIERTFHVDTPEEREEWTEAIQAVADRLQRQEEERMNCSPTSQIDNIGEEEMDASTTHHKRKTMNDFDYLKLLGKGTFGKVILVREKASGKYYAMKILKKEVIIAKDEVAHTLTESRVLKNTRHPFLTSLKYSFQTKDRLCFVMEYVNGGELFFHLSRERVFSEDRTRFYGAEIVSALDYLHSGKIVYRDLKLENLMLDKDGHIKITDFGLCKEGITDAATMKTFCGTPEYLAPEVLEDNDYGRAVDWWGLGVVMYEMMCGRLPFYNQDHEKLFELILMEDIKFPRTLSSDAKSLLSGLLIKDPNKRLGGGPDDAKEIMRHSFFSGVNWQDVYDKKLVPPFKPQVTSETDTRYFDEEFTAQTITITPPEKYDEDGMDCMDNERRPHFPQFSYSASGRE
Sequence of CDK1/cyclinB(h) (P06493 whole entry): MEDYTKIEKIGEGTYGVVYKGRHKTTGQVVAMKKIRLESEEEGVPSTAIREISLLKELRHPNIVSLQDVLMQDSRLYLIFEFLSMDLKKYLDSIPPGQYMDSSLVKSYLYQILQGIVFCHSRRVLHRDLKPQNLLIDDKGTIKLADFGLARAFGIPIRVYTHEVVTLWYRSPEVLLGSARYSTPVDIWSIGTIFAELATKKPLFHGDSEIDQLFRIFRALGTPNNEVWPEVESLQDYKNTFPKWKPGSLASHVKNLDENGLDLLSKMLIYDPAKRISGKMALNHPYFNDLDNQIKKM
Sequence of CDK1/cyclinB(h) (P14635 whole entry partner): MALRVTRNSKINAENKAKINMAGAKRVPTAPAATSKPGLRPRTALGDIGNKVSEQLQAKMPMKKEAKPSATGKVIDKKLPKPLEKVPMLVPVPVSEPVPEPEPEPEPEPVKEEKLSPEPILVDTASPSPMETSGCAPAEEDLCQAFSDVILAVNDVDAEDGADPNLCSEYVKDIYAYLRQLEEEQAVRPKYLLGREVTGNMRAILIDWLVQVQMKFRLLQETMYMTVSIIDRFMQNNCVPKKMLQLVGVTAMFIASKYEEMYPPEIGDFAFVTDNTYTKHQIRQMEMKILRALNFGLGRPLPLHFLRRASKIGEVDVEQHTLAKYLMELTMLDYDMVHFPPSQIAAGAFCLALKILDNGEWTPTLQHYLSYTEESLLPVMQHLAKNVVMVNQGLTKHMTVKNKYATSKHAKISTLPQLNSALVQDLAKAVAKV
Sequence of Fyn(h) (P06241 whole entry): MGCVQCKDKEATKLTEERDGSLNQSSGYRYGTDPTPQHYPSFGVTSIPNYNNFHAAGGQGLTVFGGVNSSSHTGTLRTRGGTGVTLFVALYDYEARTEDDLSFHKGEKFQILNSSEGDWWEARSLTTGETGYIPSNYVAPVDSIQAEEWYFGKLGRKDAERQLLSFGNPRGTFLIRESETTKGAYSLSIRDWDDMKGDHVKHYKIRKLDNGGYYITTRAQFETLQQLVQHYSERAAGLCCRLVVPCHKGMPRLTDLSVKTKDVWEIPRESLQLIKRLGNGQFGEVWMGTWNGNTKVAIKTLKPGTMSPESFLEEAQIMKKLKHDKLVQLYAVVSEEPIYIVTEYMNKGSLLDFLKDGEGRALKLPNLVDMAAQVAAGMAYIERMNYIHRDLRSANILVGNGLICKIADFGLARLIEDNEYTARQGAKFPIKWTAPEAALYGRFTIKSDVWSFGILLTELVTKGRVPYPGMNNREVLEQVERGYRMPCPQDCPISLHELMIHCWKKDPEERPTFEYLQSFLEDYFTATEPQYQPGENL
Sequence of Lck(h) (P06239 whole entry): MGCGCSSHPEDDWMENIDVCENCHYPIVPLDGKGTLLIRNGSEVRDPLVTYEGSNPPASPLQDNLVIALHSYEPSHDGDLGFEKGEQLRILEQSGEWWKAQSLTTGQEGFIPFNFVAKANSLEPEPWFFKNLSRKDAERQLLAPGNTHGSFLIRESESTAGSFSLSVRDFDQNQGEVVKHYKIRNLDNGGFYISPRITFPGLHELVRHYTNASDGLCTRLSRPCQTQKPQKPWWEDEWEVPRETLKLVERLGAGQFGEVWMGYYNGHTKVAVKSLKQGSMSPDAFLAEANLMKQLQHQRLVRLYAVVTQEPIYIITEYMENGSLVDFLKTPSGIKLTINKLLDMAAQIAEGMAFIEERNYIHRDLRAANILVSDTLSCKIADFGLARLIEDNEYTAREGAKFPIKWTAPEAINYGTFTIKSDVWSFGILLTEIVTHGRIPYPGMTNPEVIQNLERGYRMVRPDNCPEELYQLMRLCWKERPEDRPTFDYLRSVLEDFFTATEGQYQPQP

## O=C1NC(=O)C2=C1c1cn(c3ccccc13)CCCc1ccc(c(N3CCCC3)n1)CCCn1cc2c2ccccc21 [Cpd 7, 31-pyrrolidin-1-yl-5,15,25,30-tetraazaheptacyclo[27.2.2.1^5,12.1^18,25.0^6,11.0^13,17.0^19,24]pentatriaconta-1(31),6,8,10,12(35),13(17),18(34),19,21,23,29,32-dodecaene-14,16-dione]
[1]
  Activity at Protein Kinase Assays (% of control), PKBγ(h): 105 % of control
[2]
  Activity at Protein Kinase Assays (% of control), PDK1(h): 100 % of control
[3]
  Activity at Protein Kinase Assays (% of control), ZAP-70(h): 121 % of control
[4]
  Activity at Protein Kinase Assays (% of control), Fyn(h): 103 % of control
[5]
  Activity at Protein Kinase Assays (% of control), Lck(h): 90 % of control
[6]
  Activity at Protein Kinase Assays (% of control), MKK7β(h): 85 % of control
[7]
  Activity at Protein Kinase Assays (% of control), PKCζ(h): 116 % of control
[8]
  Activity at Protein Kinase Assays (% of control), CDK1/cyclinB(h): 98 % of control

## CN(C)c1nc2ccc1CCCCn1cc(c3ccccc31)C1=C(C(=O)NC1=O)c1cn(c3ccccc13)CCC2 [Cpd 1, 31-(dimethylamino)-5,15,25,32-tetraazaheptacyclo[28.2.2.1^5,12.1^18,25.0^6,11.0^13,17.0^19,24]hexatriaconta-1(32),6,8,10,12(36),13(17),18(35),19,21,23,30,33-dodecaene-14,16-dione]
[1]
  Activity at Protein Kinase Assays (% of control), PKBγ(h): 93 % of control
[2]
  Activity at Protein Kinase Assays (% of control), PDK1(h): 115 % of control
[3]
  Activity at Protein Kinase Assays (% of control), ZAP-70(h): 113 % of control
[4]
  Activity at Protein Kinase Assays (% of control), Fyn(h): 103 % of control
[5]
  Activity at Protein Kinase Assays (% of control), Lck(h): 96 % of control
[6]
  Activity at Protein Kinase Assays (% of control), MKK7β(h): 88 % of control
[7]
  Activity at Protein Kinase Assays (% of control), PKCζ(h): 98 % of control
[8]
  Activity at Protein Kinase Assays (% of control), CDK1/cyclinB(h): 78 % of control

## O=C1NC(=O)C2=C1c1cn(c3ccccc13)CCCc1cc(nc(N3CCCC3)c1)CCCn1cc2c2ccccc21 [Cpd 6, 20-pyrrolidin-1-yl-4,14,19,26-tetraazaheptacyclo[24.6.1.1^7,14.1^18,22.0^2,6.0^8,13.0^27,32]pentatriaconta-1(33),2(6),7(35),8,10,12,18(34),19,21,27,29,31-dodecaene-3,5-dione]
[1]
  Activity at Protein Kinase Assays (% of control), PKBγ(h): 103 % of control
[2]
  Activity at Protein Kinase Assays (% of control), PDK1(h): 107 % of control
[3]
  Activity at Protein Kinase Assays (% of control), ZAP-70(h): 115 % of control
[4]
  Activity at Protein Kinase Assays (% of control), Fyn(h): 106 % of control
[5]
  Activity at Protein Kinase Assays (% of control), Lck(h): 99 % of control
[6]
  Activity at Protein Kinase Assays (% of control), MKK7β(h): 97 % of control
[7]
  Activity at Protein Kinase Assays (% of control), PKCζ(h): 99 % of control
[8]
  Activity at Protein Kinase Assays (% of control), CDK1/cyclinB(h): 80 % of control

## CN(C)c1cc2cc(n1)CCCn1cc(c3ccccc31)C1=C(C(=O)NC1=O)c1cn(c3ccccc13)CCC2 [Cpd 2, 20-(dimethylamino)-4,14,19,26-tetraazaheptacyclo[24.6.1.1^7,14.1^18,22.0^2,6.0^8,13.0^27,32]pentatriaconta-1(33),2(6),7(35),8,10,12,18(34),19,21,27,29,31-dodecaene-3,5-dione]
[1]
  Activity at Protein Kinase Assays (% of control), PKBγ(h): 106 % of control
[2]
  Activity at Protein Kinase Assays (% of control), PDK1(h): 104 % of control
[3]
  Activity at Protein Kinase Assays (% of control), ZAP-70(h): 103 % of control
[4]
  Activity at Protein Kinase Assays (% of control), Fyn(h): 106 % of control
[5]
  Activity at Protein Kinase Assays (% of control), Lck(h): 100 % of control
[6]
  Activity at Protein Kinase Assays (% of control), MKK7β(h): 78 % of control
[7]
  Activity at Protein Kinase Assays (% of control), PKCζ(h): 105 % of control
[8]
  Activity at Protein Kinase Assays (% of control), CDK1/cyclinB(h): 98 % of control
